Where a name gives a salt, the structure may show the parent alone. Read-outs that look alike come from different tables or passages of the source.

In test [1] the test system is catechol amine uptake. As to conditions: comparison stated in the literature; cited from earlier work.
For test [2], the target named is T1, NMT from rabbit adrenals (norephineprine N-methyl transferase, PNMT) (Oryctolagus cuniculus, UniProt G1TT82).
T1 construct: NMT from rabbit adrenals; from tissue; host or cells: rabbit adrenals
T1 sequence (G1TT82 1-286): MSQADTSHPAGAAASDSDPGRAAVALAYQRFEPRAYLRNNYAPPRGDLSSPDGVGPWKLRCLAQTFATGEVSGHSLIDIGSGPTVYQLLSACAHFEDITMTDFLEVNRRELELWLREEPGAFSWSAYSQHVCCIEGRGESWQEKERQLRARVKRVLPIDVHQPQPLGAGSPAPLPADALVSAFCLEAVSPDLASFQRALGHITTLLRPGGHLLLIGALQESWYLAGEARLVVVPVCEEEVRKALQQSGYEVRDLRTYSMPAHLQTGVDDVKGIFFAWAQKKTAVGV
The test can be described thus: In vitro inhibition of N-methyl transferase (NMT) from rabbit adrenals. Type of test: biochemical. An excerpt:
The compounds of this invention, either in the form of the free base, or as a pharmaceutically-acceptable acid addition salt thereof, are enzyme inhibitors. In particular, as previously stated, they are inhibitors of norephineprine N-methyl transferase [PNMT or phenethanolamine N-methyl transferase--see Axelod, J. Bio, Chem., 237, 1657 (1962)]. Compounds which inhibit the conversion of norephineprine to […], are capable of lowering a high […]-norephineprine ratio in mammals, a physiological condition frequently associated with essential hypertension. The compounds of this invention are thus capable of ameliorating the […]-norephineprine imbalance in essential hypertension, an important aspect of the treatment of this disease state. The effectiveness of the compounds as N-methyl transferase inhibitors has been measured in vitro using NMT from rabbit adrenals. […] The negative reciprocal logarhithm (pI50) of this number was also calculated as a useful index. Table 1, which follows, summarizes the information thus obtained; i.e., the determination of enzyme inhibition activity for the compounds of this invention.

Where [3] appears, read: read-out: pI50 (negative reciprocal logarhithm of the 50 percent inhibitory concentration) (converted).
[4] abbreviates: series of decreasing inhibitor concentrations from 1 × 10^-4 M, read-out: 50 Inhibitory Concentration (concentration at which 50 percent inhibition of NMT is obtained).

In the case of `NC1Cc2ccccc2C1` [2-aminoindane], the “inhibition of catechol amine uptake, compared with 1-aminoindane” value in test [1] is reported as “better inhibitor of catechol amine uptake than 1-aminoindane”.

For the molecule `NC1CCc2c1ccc(Cl)c2Cl` (stereo not drawn) [4,5-dichloro-1-aminoindane], the IC50 in test [2] (setting [3]) and in test [2] (setting [4]) was 200 nM each time.

For the molecule `NC1CCc2c(Cl)cccc21` (stereo not drawn) [4-Chloro-1-aminoindane hydrochloride, 4-chloro-1-aminoindane hydrochloride], the IC50 was 759 nM in test [2] (setting [3]) and 757 nM in test [2] (setting [4]).

On to `NC1CCc2cc(Cl)c(Cl)cc21` (stereo not drawn) [5,6-dichloro-1-aminoindane maleate], for which the IC50 in test [2] (setting [3]) was 4680 nM; in test [2] (setting [4]), 2950 nM.

Regarding `NC1CCc2ccc(Cl)c(Cl)c21` (stereo not drawn) [6,7-dichloro-1-aminoindane], the IC50 was 6030 nM in test [2] (setting [3]) and 5370 nM in test [2] (setting [4]).

Source of the values: US4096173A, “Chlorinated 1-aminoindane N-methyl transferase inhibitors” (Eli Lilly and Company, priority 1977, dated 1978).
